Consider one compound from article PMC6148290, “Endogenous metabolites of vitamin E limit inflammation by targeting 5-lipoxygenase” (Nature Communications, 2018).

One may read the IC50 as the concentration at which inhibition is half-maximal.

Data set [1] relates to zymosan-induced murine peritonitis. Put plainly: Zymosan-induced peritonitis in mice. Type of data set: in vivo, mouse. The following applies: 10 mg/kg i.p. The procedure:
Mice were killed by inhalation of CO2 after another 30 min for determination of LTC4 levels and vascular permeability and after 4 h for the analysis of LTB4 levels, lipidomic profiles and immune cell infiltration. Cell infiltration and lipid mediator profiles during resolution were studied after 18 h. Peritoneal exudates were collected and cells counted after vital trypan blue staining. LTC4, LTB4, and PGE2 were analyzed in the exudate by enzyme immunoassays (Enzo Life Sciences, Lörrach, Germany) according to manufacturer's instructions. To assess vascular permeability, Evans blue dye (40 mg/kg in saline, 0.3 ml; Sigma-Aldrich) was injected into the tail vain immediately before the induction of peritonitis. Exudates were centrifuged (3000 × g, 5 min) and the absorbance of the supernatants was measured at 610 nm using a Beckman Coulter DU730 spectrophotometer. To investigate the effect of α-T (1a) on the accumulation of α-T-13'-COOH (4a) in infiltrated leukocytes after peritonitis has been established, vehicle or α-[…].) were given 1 h before and/or 4 h post zymosan injection, and mice were killed after another 1.5 h. Leukocytes were obtained from peritoneal exudates by centrifugation (1200 × g, 10 min, 4 °C).

Data set [2] has as its system peripheral blood mononuclear cells. Put plainly: Cell viability of PBMC (MTT assay). Format: cell-based, human. The following applies: at 1 and 10 µM (one entry for both); 24 h; n.i. no inhibition. How it is done:
The formazan product was solubilized with SDS (10% in 20 mM HCl), and absorbance was measured at 570 nm using a Multiskan Spectrum microplate reader (Thermo Fisher Scientific).
(Tetrazolium assays rely on reduction of a dye to a coloured formazan, in cell work by metabolically active cells.)

For data set [3], the target named is T1, human microsomal prostaglandin E2 synthase (mPGES)-1 (Homo sapiens, UniProt O14684).
T1 sequence (O14684 1-152): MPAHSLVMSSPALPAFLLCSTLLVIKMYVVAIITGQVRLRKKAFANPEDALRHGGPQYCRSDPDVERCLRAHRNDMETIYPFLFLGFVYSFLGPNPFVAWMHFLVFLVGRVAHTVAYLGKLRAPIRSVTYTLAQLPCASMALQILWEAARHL
Put plainly: mPGES-1 activity in microsomal preparations of IL-1β-treated A549 cells.
Procedure: Microsomal membranes of interleukin-1β-treated A549 cells were prepared as source of mPGES-1[67]. […] Ice-cold homogenization buffer (0.1 M potassium phosphate buffer pH 7.4, 1 mM phenylmethanesulphonyl fluoride, 60 µg/ml soybean trypsin inhibitor, 1 µg/ml leupeptin, 2.5 mM glutathione, and 250 mM sucrose) was added, and cells were incubated for 15 min on ice prior to sonication (3 × 20 s, 4 °C). […] Microsomes were suspended in homogenization buffer and diluted in potassium phosphate buffer (0.1 M, pH 7.4) containing 2.5 mM glutathione. Membranes (2.5–5 µg total protein) were pre-incubated with LCMs for 15 min at 4 °C, and PGE2 formation was initiated by addition of PGH2 (20 µM, final concentration). The reaction was terminated after 1 min by addition of one volume stop solution (40 mM FeCl2, 80 mM citric acid and 1 nmol of the internal standard 11β-PGE2, Cayman Chemicals).

Another data set addresses T2, 5-LO (Homo sapiens, UniProt P09917).
T2 sequence (P09917 1-674): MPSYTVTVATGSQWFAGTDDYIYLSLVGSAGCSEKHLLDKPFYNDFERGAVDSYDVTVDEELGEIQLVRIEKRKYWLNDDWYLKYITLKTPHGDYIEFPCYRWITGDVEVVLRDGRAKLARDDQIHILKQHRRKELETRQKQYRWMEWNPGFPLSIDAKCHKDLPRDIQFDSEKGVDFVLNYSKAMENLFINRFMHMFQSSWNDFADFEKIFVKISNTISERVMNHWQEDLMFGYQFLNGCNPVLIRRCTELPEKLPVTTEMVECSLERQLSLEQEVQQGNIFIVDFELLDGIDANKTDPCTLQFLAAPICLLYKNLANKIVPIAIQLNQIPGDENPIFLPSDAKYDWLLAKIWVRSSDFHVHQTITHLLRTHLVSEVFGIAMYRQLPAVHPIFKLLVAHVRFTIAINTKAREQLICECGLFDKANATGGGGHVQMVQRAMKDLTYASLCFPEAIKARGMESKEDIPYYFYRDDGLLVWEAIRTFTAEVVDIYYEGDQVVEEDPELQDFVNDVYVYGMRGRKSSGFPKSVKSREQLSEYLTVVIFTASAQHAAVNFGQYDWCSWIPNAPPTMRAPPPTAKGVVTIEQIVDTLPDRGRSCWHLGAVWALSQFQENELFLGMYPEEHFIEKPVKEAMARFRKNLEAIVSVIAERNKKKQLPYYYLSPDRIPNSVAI
Put plainly: Activity of purified human recombinant 5-LO (cell-free). Type of data set: biochemical. Also on record: made in house; host or cells: E. coli Bl21 (DE3). The procedure: E. coli Bl21 (DE3) cells were transformed with pT3–5LO plasmid to express human recombinant 5-LO, which was purified by affinity chromatography on an ATP-agarose column. In brief, E. coli was lysed in 50 mM triethanolamine/HCl pH 8.0 plus EDTA (5 mM), soybean trypsin inhibitor (60 µg/ml), phenylmethanesulphonyl fluoride (1 mM), dithiothreitol (1 mM), and lysozyme (1 mg/ml). After sonication (3 × 15 s), the homogenate was centrifuged at 10,000 × g for 15 min and the supernatant again at 40,000 × g for 70 min at 4 °C. The supernatant was applied to an ATP-agarose column (Sigma-Aldrich), and the column was washed with (i) PBS pH 7.4, 1 mM EDTA, (ii) 50 mM phosphate buffer pH 7.4, 0.5 M NaCl, 1 mM EDTA, and (iii) 50 mM phosphate buffer pH 7.4, 1 mM EDTA. 5-LO was eluted with 50 mM phosphate buffer pH 7.4, 1 mM EDTA, 20 mM ATP.
Purified 5-LO (0.5 µg) in PBS pH 7.4 containing EDTA (1 mM) and ATP (1 mM) was pre-incubated with LCMs for 10 min at 4 °C, pre-warmed for 30 s at 37 °C and 5-LO product formation was started by addition of AA (Sigma-Aldrich; 20 µM if not indicated otherwise) plus CaCl2 (2 mM). […] AA was added after incubation for 5 min on ice.

In another data set the test system is 15-LO. The experiment in a line: 15-LO product formation in A23187/AA-activated PMNL. As to conditions: at 3 µM; mean ± s.e.m., n = 3; n.i. no inhibition. Type of data set: cell-based, human.
The next data set has as its system PMNL. Put plainly: Uptake of vitamin E metabolites by PMNL. Format: in vitro ADME, human. The following applies: 150 nM, 20 min; calculated for spherical PMNL, diameter 13 µm. The procedure:
Freshly isolated PMNL (1 × 10^7/ml) were suspended in PBS pH 7.4 containing 1 mg/ml glucose. […] LCMs were extracted and analyzed by UPLC-MS/MS using γ-TE-13′-COOH (4g; 12.5 pmol) as internal standard. Intracellular vitamin E metabolite concentrations were calculated assuming spherical cell shape, an equal intracellular distribution, and an average diameter of 13 µm (as determined using a Vi-CELL Series Cell Counter, Beckman Coulter, Krefeld, Germany).

As for `Cc1c(C)c2c(c(C)c1O)CC[C@@](C)(CCCC(C)CCCC(C)CCCC(C)C(=O)O)O2` (stereo partly drawn) [4a, 13-((2R)-6-hydroxy-2,5,7,8-tetramethylchroman-2-yl)-2,6,10-trimethyltridecanoic acid], in data set [1] (30 min post zymosan), the vascular permeability entry is on record as “reduced”. Moreover, the “LTC4 levels in the exudate” value in data set [1] (30 min post zymosan, ELISA) is on record as “strongly decreased”. For the same compound, in data set [1] (4 h post zymosan), the “immune cell infiltration into the peritoneal cavity” value is “impaired”. Also, the “LTB4 levels in the exudate” value in data set [1] (4 h post zymosan, ELISA) is recorded as “impaired”. For the same compound, the “circulating resolvin E3 in plasma” value in data set [1] (18 h post zymosan) is listed as “strongly increased”. Further, the “suppressive effect on cell infiltration at the resolution phase” value in data set [1] (18 h post zymosan) was “vanished”. For the same compound, in data set [2], the “Cell viability/peripheral blood mononuclear cells, residual viability” value is recorded as “n.i”. Besides, the IC50 in data set [3] was 8.8 µM; on 5-LO, 270 ± 10 nM. Besides, the “15-LO product formation/PMNL, residual activity” value in the data set with 15-LO is on record as 52.6 ± 20.3 % of control. In addition, the “intracellular concentration reached in PMNL” value in the data set with PMNL was “micromolar”.
